Assay results published in PubChem BioAssay AID1259407 (Chemical Carcinogenesis Research Information System (CCRIS), 2018).
Active and inactive are the calls of the source. No rule for the calls is given here.

Tested on: CCRIS mutagenicity, Ames/micronucleus/aberration tests
Assay: CCRIS mutagenicity studies
[1] = Test System: AMES SALMONELLA TYPHIMURIUM, Strain/Indicator: TA98, Metabolic Activation: NONE, Method: PREINCUBATION
[2] = Test System: AMES SALMONELLA TYPHIMURIUM, Strain/Indicator: TA100, Metabolic Activation: NONE, Method: PREINCUBATION

Nc1ccc(N)c2ccccc12
mutagenic call (Test System: AMES SALMONELLA TYPHIMURIUM, Strain/Indicator: TA98, Metabolic Activation: HAMSTER, LIVER, S-9, AROCLOR 1254 (5%), Method: PREINCUBATION): inactive; negative
mutagenic call (Test System: AMES SALMONELLA TYPHIMURIUM, Strain/Indicator: TA98, Metabolic Activation: HAMSTER, LIVER, S-9, AROCLOR 1254 (30%), Method: PREINCUBATION): active; positive
mutagenic call [1]: inactive; negative
mutagenic call (Test System: AMES SALMONELLA TYPHIMURIUM, Strain/Indicator: TA98, Metabolic Activation: RAT, LIVER, S-9, AROCLOR 1254 (5, 10 OR 30%), Method: PREINCUBATION): inactive; negative
mutagenic call (Test System: AMES SALMONELLA TYPHIMURIUM, Strain/Indicator: TA98, Metabolic Activation: RAT, LIVER, S-9, AROCLOR 1254 (10%), Method: PREINCUBATION): inactive; negative
mutagenic call (Test System: AMES SALMONELLA TYPHIMURIUM, Strain/Indicator: TA100, Metabolic Activation: HAMSTER, LIVER, S-9, AROCLOR 1254 (5%), Method: PREINCUBATION): inactive; negative
mutagenic call (Test System: AMES SALMONELLA TYPHIMURIUM, Strain/Indicator: TA100, Metabolic Activation: HAMSTER, LIVER, S-9, AROCLOR 1254 (30%), Method: PREINCUBATION): active; positive
mutagenic call (Test System: AMES SALMONELLA TYPHIMURIUM, Strain/Indicator: TA100, Metabolic Activation: RAT, LIVER, S-9, AROCLOR 1254 (5, 10 OR 30%), Method: PREINCUBATION): inactive; negative
mutagenic call (Test System: AMES SALMONELLA TYPHIMURIUM, Strain/Indicator: TA100, Metabolic Activation: RAT, LIVER, S-9, AROCLOR 1254 (10%), Method: PREINCUBATION): inactive; negative
mutagenic call (Test System: AMES SALMONELLA TYPHIMURIUM, Strain/Indicator: TA1535, Metabolic Activation: HAMSTER, LIVER, S-9, AROCLOR 1254 (10%), Method: PREINCUBATION): inactive; negative
mutagenic call (Test System: AMES SALMONELLA TYPHIMURIUM, Strain/Indicator: TA1535, Metabolic Activation: NONE, Method: PREINCUBATION): inactive; negative
mutagenic call (Test System: AMES SALMONELLA TYPHIMURIUM, Strain/Indicator: TA1535, Metabolic Activation: RAT, LIVER, S-9, AROCLOR 1254 (10%), Method: PREINCUBATION): inactive; negative
mutagenic call (Test System: AMES SALMONELLA TYPHIMURIUM, Strain/Indicator: TA1537, Metabolic Activation: HAMSTER, LIVER, S-9, AROCLOR 1254 (10%), Method: PREINCUBATION): inactive; negative
mutagenic call (Test System: AMES SALMONELLA TYPHIMURIUM, Strain/Indicator: TA1537, Metabolic Activation: NONE, Method: PREINCUBATION): inactive; negative
mutagenic call (Test System: AMES SALMONELLA TYPHIMURIUM, Strain/Indicator: TA1537, Metabolic Activation: RAT, LIVER, S-9, AROCLOR 1254 (10%), Method: PREINCUBATION): inactive; negative

Cc1cc2nc3c(ccc4ccccc43)c(C)c2cc1C
mutagenic call (Test System: AMES SALMONELLA TYPHIMURIUM, Strain/Indicator: TA97A, Metabolic Activation: NONE, Method: PREINCUBATION): active; positive
mutagenic call [1]: inactive; negative
mutagenic call [2]: inactive; negative
mutagenic call (Test System: AMES SALMONELLA TYPHIMURIUM, Strain/Indicator: TA102, Metabolic Activation: NONE, Method: PREINCUBATION): active; positive

CCCN(CCCC(=O)O)N=O
mutagenic call (Test System: AMES SALMONELLA TYPHIMURIUM, Strain/Indicator: TA1535, Metabolic Activation: RAT, LIVER, S-9, KC500 OR PHENOBARBITAL, Method: LIQUID SUSPENSION): active; positive

C[C@]12CC[C@@H]3c4ccc(OC(=O)c5ccccc5)cc4CC[C@H]3[C@@H]1CC[C@@H]2O
mutagenic call (End Point: IN VIVO MICRONUCLEUS, Test System: BONE MARROW POLYCHROMATIC ERYTHROCYTES, Species: RAT, Strain/Sex: ALDERLEY PARK (AP)/FEMALE, Route: SUBCUTANEOUS (TEST MATERIAL SOLVENT: OIL)): inactive; negative

CC(C)N=C(NC(C)C)OCc1ccc([N+](=O)[O-])cc1
mutagenic call [1]: active; positive
mutagenic call (Test System: AMES SALMONELLA TYPHIMURIUM, Strain/Indicator: TA98, Metabolic Activation: RAT, LIVER, S-9, PCB, Method: PREINCUBATION): active; positive
mutagenic call [2]: active; positive
mutagenic call (Test System: AMES SALMONELLA TYPHIMURIUM, Strain/Indicator: TA100, Metabolic Activation: RAT, LIVER, S-9, PCB, Method: PREINCUBATION): active; positive

OCc1c2ccccc2c2ccc3cccc4ccc1c2c43
mutagenic call (Test System: AMES SALMONELLA TYPHIMURIUM, Strain/Indicator: TA98, Metabolic Activation: RAT, LIVER, CYTOSOL AND PAPS-GENERATING SYSTEM, Method: PREINCUBATION): active; positive
mutagenic call (Test System: AMES SALMONELLA TYPHIMURIUM, Strain/Indicator: TA100, Metabolic Activation: RAT, LIVER, CYTOSOL AND PAPS-GENERATING SYSTEM, Method: PREINCUBATION): active; positive
mutagenic call (Test System: AMES SALMONELLA TYPHIMURIUM, Strain/Indicator: TA100, Metabolic Activation: RAT, LIVER, S-9, AROCLOR 1254, Method: STANDARD PLATE): active; positive
mutagenic call (Test System: AMES SALMONELLA TYPHIMURIUM, Strain/Indicator: TA1538, Metabolic Activation: RAT, LIVER, S-9, AROCLOR 1254, Method: STANDARD PLATE): active; positive
mutagenic call (Test System: CHINESE HAMSTER V-79, Strain/Indicator: V-79 (HGPRT)/6-THIOGUANINE, Metabolic Activation: NONE): active; positive
mutagenic call (Test System: CHINESE HAMSTER V-79, Strain/Indicator: V-79 (NA/K-ATPASE)/OUABAIN, Metabolic Activation: NONE): active; positive
mutagenic call (Test System: CHINESE HAMSTER V-79, Strain/Indicator: V-79/OUABAIN, Metabolic Activation: HAMSTER, EMBRYO, CELL-MEDIATED, Method: STANDARD PLATE): active; positive

CN1CC[C@@]2(C)c3cc(O)ccc3N(C)[C@@H]12
mutagenic call (Test System: AMES SALMONELLA TYPHIMURIUM, Strain/Indicator: TA97, Metabolic Activation: NONE, Method: STANDARD PLATE): inactive; negative
mutagenic call (Test System: AMES SALMONELLA TYPHIMURIUM, Strain/Indicator: TA97, Metabolic Activation: S-9, Method: STANDARD PLATE): inactive; negative
mutagenic call (Test System: AMES SALMONELLA TYPHIMURIUM, Strain/Indicator: TA98, Metabolic Activation: NONE, Method: STANDARD PLATE): inactive; negative
mutagenic call (Test System: AMES SALMONELLA TYPHIMURIUM, Strain/Indicator: TA98, Metabolic Activation: S-9, Method: STANDARD PLATE): inactive; negative
mutagenic call (Test System: AMES SALMONELLA TYPHIMURIUM, Strain/Indicator: TA100, Metabolic Activation: NONE, Method: STANDARD PLATE): inactive; negative
mutagenic call (Test System: AMES SALMONELLA TYPHIMURIUM, Strain/Indicator: TA100, Metabolic Activation: S-9, Method: STANDARD PLATE): inactive; negative
mutagenic call (Test System: AMES SALMONELLA TYPHIMURIUM, Strain/Indicator: TA104, Metabolic Activation: NONE, Method: STANDARD PLATE): inactive; negative
mutagenic call (Test System: AMES SALMONELLA TYPHIMURIUM, Strain/Indicator: TA104, Metabolic Activation: S-9, Method: STANDARD PLATE): inactive; negative
mutagenic call (Test System: AMES SALMONELLA TYPHIMURIUM, Strain/Indicator: TA1535, Metabolic Activation: NONE, Method: STANDARD PLATE): inactive; negative
mutagenic call (Test System: AMES SALMONELLA TYPHIMURIUM, Strain/Indicator: TA1535, Metabolic Activation: S-9, Method: STANDARD PLATE): inactive; negative
mutagenic call (Test System: AMES SALMONELLA TYPHIMURIUM, Strain/Indicator: TA1537, Metabolic Activation: NONE, Method: STANDARD PLATE): inactive; negative
mutagenic call (Test System: AMES SALMONELLA TYPHIMURIUM, Strain/Indicator: TA1537, Metabolic Activation: S-9, Method: STANDARD PLATE): inactive; negative
mutagenic call (Test System: AMES SALMONELLA TYPHIMURIUM, Strain/Indicator: TA1538, Metabolic Activation: S-9, Method: STANDARD PLATE): inactive; negative

O=c1[nH]cc(CO)c(=O)[nH]1
mutagenic call (Test System: CHINESE HAMSTER V-79, Strain/Indicator: V-79 (HPRT)/6-THIOGUANINE, Metabolic Activation: NONE, Method: STANDARD PLATE): inactive; negative
